According to patent US20240124594A1, “TREATMENT OF CVD AND SYSTEMIC SCEROSIS WITH BETA-1 ADRENERGIC RECEPTOR ANTIBODIES” (The Cleveland Clinic Foundation, priority 2021, published 2024):

How the values were obtained:
[1] = molecular target: T1, human β1AR (Homo sapiens, UniProt P08588); experiment: cAMP generation in β1AR-HEK 293 cells (Catchpoint cAMP kit); conditions: agent alone, 10 μM for 10 min, serum starved cells, vs control
Description: cAMP generation assay was performed using whole cell lysates. The assay was done using the standard manufacturer's protocol.

[2] = molecular target: T2, human cardiac β1AR (Homo sapiens, UniProt P08588); experiment: AC activity in cardiac plasma membranes from non-failing donor human hearts; format: biochemical; conditions: agent alone, absence of IgG3 autoantibodies
T2 construct: non-failing human hearts were used as an endogenous system; tissue Cleveland Clinic's Tissue Bank; host or cells: non-failing donor human heart, plasma membrane fraction
T2 sequence (P08588 whole entry): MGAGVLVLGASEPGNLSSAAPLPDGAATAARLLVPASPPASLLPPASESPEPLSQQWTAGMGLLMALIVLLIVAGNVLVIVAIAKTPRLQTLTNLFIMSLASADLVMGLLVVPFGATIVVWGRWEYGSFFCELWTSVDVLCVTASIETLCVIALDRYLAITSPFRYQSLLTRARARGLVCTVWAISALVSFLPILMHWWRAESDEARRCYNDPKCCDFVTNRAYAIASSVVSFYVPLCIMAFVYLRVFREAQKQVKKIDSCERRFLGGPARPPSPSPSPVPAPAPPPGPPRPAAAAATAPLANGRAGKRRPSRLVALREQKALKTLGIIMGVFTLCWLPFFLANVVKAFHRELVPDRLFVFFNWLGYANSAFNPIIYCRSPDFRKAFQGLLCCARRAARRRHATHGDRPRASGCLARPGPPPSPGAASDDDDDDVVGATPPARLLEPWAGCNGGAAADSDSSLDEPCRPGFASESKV
Description: (§1) Briefly the treated cells were scraped using osmotic lysis buffer (5 mM Tris-HCl, pH 7.4; 5 mM EDTA; 1 mM PMSF; 2 μg/mL Leupeptin and 1 μg/mL Aprotinin) and homogenized by douncing. Cardiac tissue samples from non-failing human hearts were homogenized in osmotic lysis buffer using Polytron® homogenizer. This was followed by toggling the samples for 10 mins. The intact cells and nuclei were removed by centrifuging these samples at 2500 rpm for 5 mins. The collected supernatant was centrifuged at 17500 rpm for 30 minutes to obtain the plasma membrane as pellet. All the above steps were performed at 4° C.

[3] = molecular target: T1, human β1AR; experiment: Adenylyl cyclase (AC) assay on plasma membranes of HEK-β1AR cells (G-protein coupling); format: biochemical; parameters: FLAG; expressed in transfected cells; pcDNA3.1(-) plasmid, a gift from Dr. Yang K. Xiang; conditions: agent alone, isolated plasma membranes
Description: as §1

[4] = molecular target: T1, human β1AR; experiment: phospho-ERK immunoblotting in β1AR-HEK 293 cells; conditions: agent alone

T1 sequence (P08588 whole entry): as above

- cAMP generation [1]: significantly increased
- AC activity [2]: activating AC activity
- AC activity [3]: significantly increased AC activity
- ERK phosphorylation [4]: significantly increased
Structure (SMILES): CC(CCc1ccc(O)cc1)NCCc1ccc(O)c(O)c1 (stereo not shown) [Dob, dobutamine]
